From US9879028B2, “Compounds that modulate EGFR activity and methods for treating or preventing conditions therewith” (Gatekeeper Pharmaceuticals, Inc., priority 2009, dated 2018)

Key:
[1] = tested on: EGFR Del 19/T790M Ba/F3 cells; assay: MTS cell proliferation and growth assay in EGFR mutant Ba/F3 cells (Del 19/T790M); type: cell-based; settings: Mus musculus, BaF3, 72 hours
Excerpt: (§1) The EGFR and iERBB2 mutant Ba/F3 cells and the NIH-3T3 cells have been previously characterized (Engelman, J. A. et al. Cancer Res 67, 11924-32 (2007); Yuza, Y. et al. Cancer Biol Ther 6 (2007)). The EGFR C797S and the ERBB2 T798I mutations are introduced using site directed mutagenesis using the Quick Change Site-Directed Mutagenesis kit (Stratagene; La Jolla, Calif.) according to the manufacturer's instructions (Mukohara, T. et al. J Natl Cancer Inst 97, 1185-94 (2005)). The oligonucleotide sequences are available upon request. All constructs are confirmed by DNA sequencing. The constructs are shuttled into the retroviral vector JP1540 using the BD Creator™ System (BD Biosciences). Ba/F3 of NIH-3T3 cells are infected with retrovirus according to standard protocols, as described previously (Engelman, J. A. et al. Proc Natl Acad Sci USA 102, 3788-93 (2005); Zhao, J. J. et al. Cancer Cell 3, 483-95 (2003)). Stable populations are obtained by selection in puromycin (2 μg/ml).
(§2) Growth and inhibition of growth is assessed by MTS assay. […]
(§3) Activity of various compounds of the invention was determined in vitro in EGFR mutant Ba/F3 cells according to the procedures set forth in Example 1.

[2] = tested on: EGFR L858R/T790M Ba/F3 cells; assay: MTS cell proliferation and growth assay in EGFR mutant Ba/F3 cells (L858R/T790M); type: cell-based; settings: Mus musculus, BaF3, 72 hours
Excerpt: as §1, §2, §3

[3] = tested on: lung cancer; settings: lung cancer patients; cited from earlier work

Compound | IC50 [1] | IC50 [2] | median time to tumor progression [3]
C=CC(=O)Nc1cccc(Oc2nc(Nc3ccc(N4CCN(C)CC4)cc3OC)nc3ccccc23)c1 [IV-1, N-(3-((2-((2-methoxy-4-(4-methylpiperazin-1-yl)phenyl)amino)quinazolin-4-yl)oxy)phenyl)acrylamide] | 435 nM | 688 nM | 
C=CC(=O)Nc1cccc(-c2csc3cnc(Nc4ccc(N5CCN(C)CC5)cc4OC)nc23)c1 [VIII-1, N-(3-(2-((2-methoxy-4-(4-methylpiperazin-1-yl)phenyl)amino)thieno[3,2-d]pyrimidin-7-yl)phenyl)acrylamide] | 864 nM | 2160 nM | 
C#Cc1cccc(Nc2ncnc3cc(OCCOC)c(OCCOC)cc23)c1 [erlotinib] |  |  | approximately 2 months
COc1cc2ncnc(Nc3ccc(F)c(Cl)c3)c2cc1OCCCN1CCOCC1 [gefitinib] |  |  | approximately 2 months
